One assay concerns the target Mas receptor. The settings on record: Santos et al., PNAS 2003; cited from earlier work.
The test system of assay [1] is aorta rings of Mas+/+ mice. Put plainly: Vasorelaxation in phenylephrine-precontracted aorta rings of wild-type (Mas+/+) mice. Format: cell-based, mice (C57/BI-6 and FVB/N). To be noted: both lineages C57/BI-6 and FVB/N, precontracted with fenilefrine 0.1 μM. The method, then:
This example describes the vasodilating effect of Ala^1-Ang-(1-7), independently of the Mas receptor, on aorta rings of mice with genetic deletion of the Mas receptor (Mas−/−) and wild-type mice (Mas+/+) from two different lineages, C57/BI-6 and FVB/N.
(§1) The original rings of the descending thoracic aorta (2 mm), free from adipose tissue and connective tissue, were incubated in gasified solution (95% O2 and 5% CO2) of Krebs-Henseleit (mmol/L): NaCl 110.8, KCl 5.9, NaHCO3 25.0, MgSO4 1.07, CaCl2 2.49, NaH2PO4 2.33 and glucose 11.51, under a temperature of 37° C. and a 0.5 g tension, being equilibrated for 1 hour. The functional presence of endothelium was tested by its relaxing capacity produced by acetylcholine [ACh] (10 μM) on vessels precontracted with fenilefrine (0.3 μM). Only the vessels showing relaxation above 70% of extended contraction produced by fenilefrine were taken into account. […]
The aorta rings of mice Mas−/− and Mas+/+ from both lineages (C57/BI-6 and FVB/N) were precontracted to achieve the same tension level (approximately a 1.0 g tension) at a submaximum concentration of fenilefrine (0.1 μM). […] The vasodilating effects of Ala^1-Ang-(1-7) and Ang-(1-7) were expressed as a percentage of relaxation relative to the maximum contraction induced by fenilefrine. […]

Assay [2] deals with aorta rings of AT2−/− mice. Put plainly: Vasorelaxation in precontracted aorta rings of AT2-/- mice. To be noted: precontracted with fenilefrine 0.1 μM. Format: cell-based. As for the experimental part: This example describes the vasodilating effect of Ala^1-Ang-(1-7) and Ang-(1-7)—which is independent of the AT2 receptor—on the aorta of mice with genetic deletion of AT2 (AT2−/−) receptor.
as §1, with “account. Data on mechanical activity were isometrically obtained by using an amplified strength transducer (Model TMB-4; World Precision Instruments, Inc. Sarasota, Fla., USA) and converted to digital signal (AD16JR; World Precision Instruments, Inc.).” for “account.”
The aorta rings of AT2−/− mice were precontracted (approx. 1.0 g of tension) with a felinefrine submaximum concentration (0.1 μM). […] The vasodilating effects of Ala^1-Ang-(1-7) and Ang-(1-7) were expressed as a relaxation percentage relative to the maximum contraction induced by fenilefrine. […]

Assay [3] has as its system aorta rings in absence of functional endothelium. Put plainly: Vasorelaxation in aorta rings without functional endothelium. Format: cell-based, mice (C57/BI-6 and FVB/N). The settings on record: vessels not presenting functional endothelium (Mas+/+ and Mas−/−, C57/BI-6 and FVB/N). As for the experimental part:
This example describes the endothelium-dependence of the Ala^1-Ang-(1-7) vasorelaxing activity.
as §1, with “μM). In accordance with experimental protocols for its absence, the endothelium was removed with a slight friction on the vessel internal surface.” for “μM).”, “relaxation by acetylcholine” for “relaxation”
The Ala^1-Ang-(1-7) vasorelaxing activity was measured in vessels (Mas+/+ and Mas−/−, of lineages C57/BI-6 and FVB/N) in the presence or absence of precontracted functional endothelium (with approximately a 1.0 g tension) and a submaximum concentration of fenilefrine (0.1 μM). […] The vasodilating effects of Ala^1-Ang-(1-7) and Ang-(1-7) were expressed as a relaxation percentage relative to the maximum contraction induced by fenilefrine. […]

On to “Asp^1-Arg^2-Val^3-Tyr^4-Ile^5-His^6-Pro^7 [Ang-(1-7)]”, for which the Kd at Mas receptor is 0.33 nM. In addition, the “vasorelaxation (relaxation relative to maximum contraction induced by fenilefrine)” value in assay [1] is on record as “produced vasorelaxation”. For the same substance, in assay [2], the vasodilating effect entry was “preserved”.
As to “Ala^1-Arg^2-Val^3-Tyr^4-Ile^5-His^6-Pro^7 [Ala^1-Ang-(1-7)]”, the “vasorelaxation (relaxation relative to maximum contraction induced by fenilefrine)” value in assay [1] is on record as “produced vasorelaxation”. Besides, the vasodilating effect result in assay [3] is given as “abolished”; in assay [2], “preserved”.

As usually defined, the Kd is the constant that tells how readily two partners part at equilibrium.

Values taken from patent US9974825B2, “Peptides Des-[Asp1]-[Ala1], angiotensin-(1-7) agonist and pharmaceutical compositions for the treatment of diseases” (UNIVERSIDADE FEDERAL DE MINAS GERAIS, priority 2008, dated 2018).
